The values below come from patent US20230286973A1, “PROTEIN SECRETION INHIBITORS” (KEZAR LIFE SCIENCES, priority 2020, published 2023).

Series [1] relates to PD1-ss+10aa/Gaussia Luciferase. Description: Dox-Induced PD1-ss-Gluc Assay. Type of series: cell-based. The settings on record: 24 hr Dox induction, 293FRT/TO cells, read-out: 24 hr Dox Inducible PD1ssGluc 293FRT/TO: Mean IC50. In short, it runs like this: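 Flp-In 293 T-REx, stable line; Tet-regulated PD1-ss+10aa fused to Gaussia luciferase; plated day prior; cpd + doxycycline in DMSO/media; 37 °C, 5% CO2.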

The subject of series [2] is TNFα-FL/Gaussia Luciferase. Description: Dox Induced TNFα-FL-Gluc Assay. Type of series: cell-based. Particulars: for IC50: 24 hr Dox induction, 293FRT/TO cells, read-out: 24 hr Dox Inducible TNFaFLGluc 293FRT/TO: Mean IC50; for 24 hr Dox Inducible TNFaFLGluc 293FRT/TO: TNF/PD1: ratio of TNFaFLGluc IC50 to PD1ssGluc IC50. A digest of the protocol:
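Doxycycline-inducible Gaussia luciferase-tagged full-length TNFα (1-233) was expressed in stable Flp-In 293 T-REx cells. Compounds were co-added with doxycycline and incubated at 37 °C, 5% CO2.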

Series [3] concerns HER3-ss+4aa/Gaussia Luciferase. Description: Dox-Induced Her3-ss-Gluc Assay. The settings on record: 24 hr Dox induction, 293FRT/TO cells, read-out: 24 hr Dox Inducible Her3(ss + 4)Gluc 293FRT/TO: Mean IC50. It is filed as cell-based. A digest of the protocol:
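Reporter line: Flp-In 293 T-REx, T-REx-regulated HER3-ss+4aa fused to Gaussia luciferase. Compound co-added with doxycycline after overnight plating, 37° C., 5% CO2.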

The test system of series [4] is IL-2-FL/Gaussia Luciferase. Description: Dox Induced IL2-FL-Gluc Assay. Type of series: cell-based. Particulars: for IC50: 24 hr Dox induction, 293FRT/TO cells, read-out: 24 hr Dox Inducible IL2FLGluc 293FRT/TO: Mean IC50; for 24 hr Dox Inducible IL2FLGluc 293FRT/TO: IL2/PD1: ratio of IL2FLGluc IC50 to PD1ssGluc IC50. A digest of the protocol:
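Doxycycline induces an IL-2(1-153)–Gaussia luciferase fusion in a stable Flp-In 293 T-REx line. Compound exposure runs alongside induction at 37° C.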

In series [5] the test system is multiple myeloma cell line NCI-H929. Description: H929 Cell Viability Assay. Type of series: cell-based, human. Particulars: Homo sapiens, NCI-H929, 48 h, NCI-H929 cells, Celltiter-Glo. In short, it runs like this:
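Viability is scored by CellTiter-Glo luminescence following a 48-hour treatment at 37° C. Data for structures shown without stereochemistry refer to stereoisomer mixtures.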
In general terms: ATP-based viability assays read luminescence as a measure of living cells.

Series [6] has as its system multiple myeloma cell line U266B1. Description: U266 Cell Viability Assay. Type of series: cell-based, human. The settings on record: Homo sapiens, U-266, 48 h, U266B1 cells, Celltiter-Glo. A digest of the protocol: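 Viability is measured as luciferase signal from CellTiter-Glo following a 48-hour incubation with compound at 37° C. under 5% CO2. Where structures lack drawn stereochemistry, values refer to stereoisomer mixtures.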

Series [7] in a line: Liver Microsome Stability Assay (rat). The settings on record: rat liver microsomes, with NADPH, 1.0 uM compound. A general note: Liver microsomes are vesicles of endoplasmic reticulum, rich in cytochrome P450 enzymes.
Description: (§1) Stability of a compound was assessed in the presence of liver microsomes from various sources—mouse, rat, monkey and human liver microsomes. 1.0 uM compound, 0.4% DMSO in 0.1 M Potassium Phosphate with 1.0 mg/mL liver microsomes, were incubated at 37° C. with or without 1 mM NADPH. The samples were quenched at 0, and 30 minutes.
The nature of series [8]: Liver Microsome Stability Assay (mouse). Particulars: mouse liver microsomes, with NADPH, 1.0 uM compound.
Description: as §1
Series [9] is described as follows: Liver Microsome Stability Assay (human). The settings on record: human liver microsomes, with NADPH, 1.0 uM compound.
Description: as §1
Series [10] is described as follows: Liver Microsome Stability Assay (monkey). The settings on record: monkey liver microsomes, with NADPH, 1.0 uM compound.
Description: as §1
The mark [11] stands for this setting: '<=>' given where both are I.A.

Read-outs that look alike come from different tables or passages of the source.

Broadly, the EC50 is the concentration that produces a half-maximal response. With `O=C(Nc1nc(C2Cc3cccnc3C2)cs1)c1cccn1Cc1ccncc1` (stereo not drawn) [Compound E37, N-(4-(6,7-dihydro-5H-cyclopenta[b]pyridin-6-yl)thiazol-2-yl)-1-(pyridin-4-ylmethyl)-1H-pyrrole-2-carboxamide], the IC50 in [1] (mean) is 2900 nM; in series [2] (mean), greater than 25000 nM; in series [3] (mean), 8040 nM; in [4] (mean), 16500 nM. Further, the “24 hr Dox Inducible TNFaFLGluc 293FRT/TO: TNF/PD1” value in [2] (setting [11]) is reported as greater than 8.63. For the same compound, the “24 hr Dox Inducible IL2FLGluc 293FRT/TO: IL2/PD1” value in [4] (setting [11]) stood at 5.7. Further, the EC50 in series [5] and in series [6] was greater than 25000 nM each time. The “Liver Microsome Stability (Multiple Species): Rat - % Remaining after 30 min w/NADPH” value in [7] was 0.34%. Further, the “Liver Microsome Stability (Multiple Species): Mouse - % Remaining after 30 min w/NADPH” value in series [8] is given as 0.18%. For the same compound, the “Liver Microsome Stability (Multiple Species): Human - % Remaining after 30 min w/NADPH” value in series [9] came to 0.08%. Besides, the “Liver Microsome Stability (Multiple Species): Monkey - % Remaining after 30 min w/NADPH” value in series [10] is recorded as 0.08%.

`CC(=O)N1CCC(Oc2ccc(N3CCC[C@@H]3c3csc(NC(=O)c4cccn4Cc4ccncc4)n3)cc2)CC1` [Compound A7, (R)-N-(4-(1-(4-((1-acetylpiperidin-4-yl)oxy)phenyl)pyrrolidin-2-yl)thiazol-2-yl)-1-(pyridin-4-ylmethyl)-1H-pyrrole-2-carboxamide]: the IC50 amounted to 13.8 nM in series [1], 330 nM in series [2], 25.2 nM in series [3] and 35.6 nM in series [4]. Moreover, in series [2], the “24 hr Dox Inducible TNFaFLGluc 293FRT/TO: TNF/PD1” value is reported as 23.8. Also, in [4], the “24 hr Dox Inducible IL2FLGluc 293FRT/TO: IL2/PD1” value is listed as 2.6. Also, the figures for the EC50 in series [5] and in series [6] were 497 nM and greater than 25000 nM, respectively. In addition, in series [7], the “Liver Microsome Stability (Multiple Species): Rat - % Remaining after 30 min w/NADPH” value worked out at 5.67%. Further, the “Liver Microsome Stability (Multiple Species): Mouse - % Remaining after 30 min w/NADPH” value in series [8] came out at 39.9%. For the same compound, in series [9], the “Liver Microsome Stability (Multiple Species): Human - % Remaining after 30 min w/NADPH” value was 4.64%. Also, in [10], the “Liver Microsome Stability (Multiple Species): Monkey - % Remaining after 30 min w/NADPH” value was 3.56%.

Take `CC(=O)N1CCC(Oc2ccc(N3CCC[C@@H]3c3csc(NC(=O)c4cccn4Cc4ccnc(F)c4)n3)cc2)C(F)C1` (stereo partly drawn) [Compound A108, N-(4-((2R)-1-(4-((1-acetyl-3-fluoropiperidin-4-yl)oxy)phenyl)pyrrolidin-2-yl)thiazol-2-yl)-1-((2-fluoropyridin-4-yl)methyl)-1H-pyrrole-2-carboxamide]: the IC50 in series [1] stood at 33.7 nM; in [2] it was 283 nM; in [3], 72.9 nM; in [4], 71.2 nM. The “24 hr Dox Inducible TNFaFLGluc 293FRT/TO: TNF/PD1” value in series [2] amounted to 8.39. Also, the “24 hr Dox Inducible IL2FLGluc 293FRT/TO: IL2/PD1” value in series [4] was 2.1. For the same compound, the EC50 in series [5] is 1280 nM; in [6], greater than 25000 nM. Besides, the “Liver Microsome Stability (Multiple Species): Rat - % Remaining after 30 min w/NADPH” value in series [7] is listed as 39%. In series [8], the “Liver Microsome Stability (Multiple Species): Mouse - % Remaining after 30 min w/NADPH” value came out at 17%. The “Liver Microsome Stability (Multiple Species): Human - % Remaining after 30 min w/NADPH” value in series [9] was 13.2%. Further, the “Liver Microsome Stability (Multiple Species): Monkey - % Remaining after 30 min w/NADPH” value in series [10] turned out to be 0.49%.

In the case of `NC(=O)CCCn1cccc1C(=O)Nc1nc([C@H]2CCCN2c2ccccc2)cs1` [Compound C7], the IC50 in series [1] (mean) is 3700 nM; in series [2] (mean), greater than 25000 nM; in series [3] (mean) it was 7970 nM; in [4] (mean), greater than 25000 nM. Besides, in series [2] (setting [11]), the “24 hr Dox Inducible TNFaFLGluc 293FRT/TO: TNF/PD1” value is recorded as greater than 6.75. In series [4] (setting [11]), the “24 hr Dox Inducible IL2FLGluc 293FRT/TO: IL2/PD1” value turned out to be 6.8. Besides, the EC50 in series [5] and in series [6] was greater than 25000 nM each time. Besides, the “Liver Microsome Stability (Multiple Species): Rat - % Remaining after 30 min w/NADPH” value in series [7] is 27.6%. Moreover, the “Liver Microsome Stability (Multiple Species): Mouse - % Remaining after 30 min w/NADPH” value in [8] stood at 26.6%. Also, in series [9], the “Liver Microsome Stability (Multiple Species): Human - % Remaining after 30 min w/NADPH” value is 39.7%. The “Liver Microsome Stability (Multiple Species): Monkey - % Remaining after 30 min w/NADPH” value in [10] came out at 10.4%.

Consider `O=C(Nc1nc([C@H]2CCCN2c2ccc(C3CCCCN3)cc2)cs1)c1cccn1Cc1ccncc1` (stereo partly drawn) [Compound A59, N-(4-((2R)-1-(4-(piperidin-2-yl)phenyl)pyrrolidin-2-yl)thiazol-2-yl)-1-(pyridin-4-ylmethyl)-1H-pyrrole-2-carboxamide], for which the IC50 in [1] stood at 2180 nM; in series [2] it was 22500 nM; in series [3], 5060 nM; in series [4], 6960 nM. Moreover, the “24 hr Dox Inducible TNFaFLGluc 293FRT/TO: TNF/PD1” value in series [2] is 10.3. Also, in series [4], the “24 hr Dox Inducible IL2FLGluc 293FRT/TO: IL2/PD1” value is 3.2. In addition, the EC50 in series [5] stood at 16000 nM; in [6], 6490 nM. In series [7], the “Liver Microsome Stability (Multiple Species): Rat - % Remaining after 30 min w/NADPH” value worked out at 21.3%. For the same compound, the “Liver Microsome Stability (Multiple Species): Mouse - % Remaining after 30 min w/NADPH” value in [8] was determined as 49.8%. Also, in series [9], the “Liver Microsome Stability (Multiple Species): Human - % Remaining after 30 min w/NADPH” value was 0.62%. Moreover, the “Liver Microsome Stability (Multiple Species): Monkey - % Remaining after 30 min w/NADPH” value in series [10] is listed as 2.29%.

`O=C(Nc1nc([C@H]2CCCN2c2ccc(Cl)cc2)cs1)c1cccn1Cc1ccncc1` [Compound A26, (R)-N-(4-(1-(4-chlorophenyl)pyrrolidin-2-yl)thiazol-2-yl)-1-(pyridin-4-ylmethyl)-1H-pyrrole-2-carboxamide]: the IC50 turned out to be 3.15 nM in series [1], 158 nM in series [2], 9.38 nM in [3] and 6.78 nM in series [4]. For the same compound, the “24 hr Dox Inducible TNFaFLGluc 293FRT/TO: TNF/PD1” value in [2] is given as 50.2. Moreover, the “24 hr Dox Inducible IL2FLGluc 293FRT/TO: IL2/PD1” value in series [4] was 2.1. The EC50 in series [5] stood at 136 nM; in [6], 1170 nM. The “Liver Microsome Stability (Multiple Species): Rat - % Remaining after 30 min w/NADPH” value in series [7] is on record as 8.78%. Further, the “Liver Microsome Stability (Multiple Species): Mouse - % Remaining after 30 min w/NADPH” value in [8] was determined as 5.75%. In addition, the “Liver Microsome Stability (Multiple Species): Human - % Remaining after 30 min w/NADPH” value in series [9] is on record as 5.11%. In addition, the “Liver Microsome Stability (Multiple Species): Monkey - % Remaining after 30 min w/NADPH” value in series [10] is reported as 3.34%.

Consider `CC(=O)N1CCC(Oc2ccc(N3CCC[C@@H]3c3csc(NC(=O)c4cccn4Cc4ccnc(F)c4)n3)nc2)CC1` [Compound A154, (R)-N-(4-(1-(5-((1-acetylpiperidin-4-yl)oxy)pyridin-2-yl)pyrrolidin-2-yl)thiazol-2-yl)-1-((2-fluoropyridin-4-yl)methyl)-1H-pyrrole-2-carboxamide], for which the IC50 worked out at 64.5 nM in [1], 643 nM in series [2], 127 nM in series [3] and 135 nM in series [4]. Further, in [2], the “24 hr Dox Inducible TNFaFLGluc 293FRT/TO: TNF/PD1” value is given as 9.97. For the same compound, the “24 hr Dox Inducible IL2FLGluc 293FRT/TO: IL2/PD1” value in [4] was 2.1. Also, the EC50 in [5] is 1520 nM; in [6], greater than 25000 nM. The “Liver Microsome Stability (Multiple Species): Rat - % Remaining after 30 min w/NADPH” value in series [7] is recorded as 16%. The “Liver Microsome Stability (Multiple Species): Mouse - % Remaining after 30 min w/NADPH” value in [8] came out at 18.3%. Further, the “Liver Microsome Stability (Multiple Species): Human - % Remaining after 30 min w/NADPH” value in series [9] is 1.29%. Further, in series [10], the “Liver Microsome Stability (Multiple Species): Monkey - % Remaining after 30 min w/NADPH” value was 0.22%.
